{"source": "ChEMBL document CHEMBL1201862", "about": "“PubChem BioAssay data set” (2004)", "test_in_all_cases": "inhibition of tumour cell growth, NCI panel, 48 h", "key": {"KM12": {"test_system": "KM12"}, "HCT-15": {"test_system": "HCT-15"}, "ACHN": {"test_system": "ACHN"}, "786-0": {"test_system": "786-0"}, "Malme-3M": {"test_system": "Malme-3M"}, "SF-295": {"test_system": "SF-295"}, "BT-549": {"test_system": "BT-549"}, "MDA-N": {"test_system": "MDA-N"}, "SW-620": {"test_system": "SW-620"}, "NCI-H226": {"test_system": "NCI-H226"}, "COLO 205": {"test_system": "COLO 205"}, "HCT-116": {"test_system": "HCT-116"}, "CAKI-1": {"test_system": "CAKI-1"}, "DU-145": {"test_system": "DU-145"}, "UACC-257": {"test_system": "UACC-257"}, "OVCAR-8": {"test_system": "OVCAR-8"}, "OVCAR-3": {"test_system": "OVCAR-3"}, "SF-268": {"test_system": "SF-268"}, "RPMI-8226": {"test_system": "RPMI-8226"}}, "note": "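Where inhibition never reached the appropriate level, the endpoint shown equals the highest concentration tested. Otherwise, values were interpolated linearly from a five-concentration, 48-hour dose response in 96-well plates. Abbreviation: GI50, concentration required for 50% inhibition of growth.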 Calls of active or inactive are those of the source. No stated cut-off is given here; in the data, active = GI50 up to about 1.1 µM and inactive = higher."}
{"compound": "C/C(=N\\Nc1nc2ccccc2s1)c1cc(C)ncn1", "values": [{"measurement": "GI50", "setting": "KM12", "value": "0.767 µM (active)"}, {"measurement": "GI50", "setting": "HCT-15", "value": 0.394, "unit": "µM"}, {"measurement": "GI50", "setting": "ACHN", "value": "0.199 µM (active)"}, {"measurement": "GI50", "setting": "786-0", "value": "0.507 µM (active)"}, {"measurement": "GI50", "setting": "Malme-3M", "value": "0.372 µM (active)"}, {"measurement": "GI50", "setting": "SF-295", "value": "2.73 µM (inactive)"}, {"measurement": "GI50", "setting": "BT-549", "value": "6.79 µM (inactive)"}, {"measurement": "GI50", "setting": "MDA-N", "value": "3.98 µM (inactive)"}, {"measurement": "GI50", "setting": "SW-620", "value": "0.352 µM (active)"}, {"measurement": "GI50", "setting": "NCI-H226", "value": "0.427 µM (active)"}, {"measurement": "GI50", "setting": "COLO 205", "value": "0.0543 µM (active)"}, {"measurement": "GI50", "setting": "HCT-116", "value": "0.1 µM (active)"}, {"measurement": "GI50", "setting": "CAKI-1", "value": "0.145 µM (active)"}, {"measurement": "GI50", "setting": "DU-145", "value": "2.19 µM (inactive)"}, {"measurement": "GI50", "setting": "UACC-257", "value": "0.29 µM (active)"}, {"measurement": "GI50", "setting": "OVCAR-8", "value": "0.29 µM (active)"}, {"measurement": "GI50", "setting": "OVCAR-3", "value": "0.408 µM (active)"}, {"measurement": "GI50", "setting": "SF-268", "value": "0.318 µM (active)"}, {"measurement": "GI50", "setting": "RPMI-8226", "value": "0.337 µM (active)"}]}
{"compound": "Cc1cccc(Cn2c3c(c4cc(O)ccc42)C(=O)c2ccccc2C3=O)c1", "values": [{"measurement": "GI50", "setting": "KM12", "value": "41.2 µM (inactive)"}, {"measurement": "GI50", "setting": "HCT-15", "value": 54.7, "unit": "µM"}, {"measurement": "GI50", "setting": "ACHN", "value": "13.3 µM (inactive)"}, {"measurement": "GI50", "setting": "786-0", "value": "3.86 µM (inactive)"}, {"measurement": "GI50", "setting": "Malme-3M", "value": "19.1 µM (inactive)"}, {"measurement": "GI50", "setting": "SF-295", "value": "3.89 µM (inactive)"}, {"measurement": "GI50", "setting": "BT-549", "value": "24.3 µM (inactive)"}, {"measurement": "GI50", "setting": "MDA-N", "value": "68.4 µM (inactive)"}, {"measurement": "GI50", "setting": "SW-620", "value": "31 µM (inactive)"}, {"measurement": "GI50", "setting": "NCI-H226", "value": "15.7 µM (inactive)"}, {"measurement": "GI50", "setting": "COLO 205", "value": "> 78.2 µM (inactive)"}, {"measurement": "GI50", "setting": "HCT-116", "value": "3.05 µM (inactive)"}, {"measurement": "GI50", "setting": "CAKI-1", "value": "> 26.5 µM (inactive)"}, {"measurement": "GI50", "setting": "DU-145", "value": "> 100 µM (inactive)"}, {"measurement": "GI50", "setting": "UACC-257", "value": "> 100 µM (inactive)"}, {"measurement": "GI50", "setting": "OVCAR-8", "value": "5.57 µM (inactive)"}, {"measurement": "GI50", "setting": "OVCAR-3", "value": "> 31.6 µM (inactive)"}, {"measurement": "GI50", "setting": "SF-268", "value": "36.6 µM (inactive)"}, {"measurement": "GI50", "setting": "RPMI-8226", "value": "5.92 µM (inactive)"}]}
{"compound": "Nc1cccc2cc(Cl)cnc12", "values": [{"measurement": "GI50", "setting": "KM12", "value": "> 100 µM (inactive)"}, {"measurement": "GI50", "setting": "HCT-15", "value": "> 100", "unit": "µM"}, {"measurement": "GI50", "setting": "ACHN", "value": "> 100 µM (inactive)"}, {"measurement": "GI50", "setting": "786-0", "value": "> 100 µM (inactive)"}, {"measurement": "GI50", "setting": "Malme-3M", "value": "> 100 µM (inactive)"}, {"measurement": "GI50", "setting": "SF-295", "value": "> 100 µM (inactive)"}, {"measurement": "GI50", "setting": "BT-549", "value": "> 100 µM (inactive)"}, {"measurement": "GI50", "setting": "MDA-N", "value": "> 100 µM (inactive)"}, {"measurement": "GI50", "setting": "SW-620", "value": "> 100 µM (inactive)"}, {"measurement": "GI50", "setting": "NCI-H226", "value": "> 100 µM (inactive)"}, {"measurement": "GI50", "setting": "COLO 205", "value": "> 100 µM (inactive)"}, {"measurement": "GI50", "setting": "HCT-116", "value": "> 100 µM (inactive)"}, {"measurement": "GI50", "setting": "CAKI-1", "value": "> 100 µM (inactive)"}, {"measurement": "GI50", "setting": "DU-145", "value": "> 100 µM (inactive)"}, {"measurement": "GI50", "setting": "UACC-257", "value": "> 100 µM (inactive)"}, {"measurement": "GI50", "setting": "OVCAR-8", "value": "> 100 µM (inactive)"}, {"measurement": "GI50", "setting": "OVCAR-3", "value": "96.8 µM (inactive)"}, {"measurement": "GI50", "setting": "SF-268", "value": "> 100 µM (inactive)"}, {"measurement": "GI50", "setting": "RPMI-8226", "value": "> 100 µM (inactive)"}]}
{"compound": "NCC(=O)C(O)C(O)C(O)CO", "note": "(centres undefined)", "values": [{"measurement": "GI50", "setting": "KM12", "value": "> 100 µM (inactive)"}, {"measurement": "GI50", "setting": "HCT-15", "value": "> 100", "unit": "µM"}, {"measurement": "GI50", "setting": "ACHN", "value": "> 100 µM (inactive)"}, {"measurement": "GI50", "setting": "786-0", "value": "> 100 µM (inactive)"}, {"measurement": "GI50", "setting": "Malme-3M", "value": "> 100 µM (inactive)"}, {"measurement": "GI50", "setting": "SF-295", "value": "> 100 µM (inactive)"}, {"measurement": "GI50", "setting": "BT-549", "value": "> 100 µM (inactive)"}, {"measurement": "GI50", "setting": "MDA-N", "value": "> 100 µM (inactive)"}, {"measurement": "GI50", "setting": "SW-620", "value": "> 100 µM (inactive)"}, {"measurement": "GI50", "setting": "NCI-H226", "value": "> 100 µM (inactive)"}, {"measurement": "GI50", "setting": "COLO 205", "value": "> 100 µM (inactive)"}, {"measurement": "GI50", "setting": "HCT-116", "value": "> 100 µM (inactive)"}, {"measurement": "GI50", "setting": "CAKI-1", "value": "> 100 µM (inactive)"}, {"measurement": "GI50", "setting": "DU-145", "value": "> 100 µM (inactive)"}, {"measurement": "GI50", "setting": "UACC-257", "value": "> 100 µM (inactive)"}, {"measurement": "GI50", "setting": "OVCAR-8", "value": "> 100 µM (inactive)"}, {"measurement": "GI50", "setting": "OVCAR-3", "value": "> 100 µM (inactive)"}, {"measurement": "GI50", "setting": "SF-268", "value": "> 100 µM (inactive)"}, {"measurement": "GI50", "setting": "RPMI-8226", "value": "> 100 µM (inactive)"}]}
{"compound": "COc1cc2c(cc1OC)C(=O)/C(=C/c1ccccc1)CC2", "values": [{"measurement": "GI50", "setting": "KM12", "value": "14.4 µM (inactive)"}, {"measurement": "GI50", "setting": "HCT-15", "value": 20.8, "unit": "µM"}, {"measurement": "GI50", "setting": "ACHN", "value": "53.5 µM (inactive)"}, {"measurement": "GI50", "setting": "786-0", "value": "34.9 µM (inactive)"}, {"measurement": "GI50", "setting": "Malme-3M", "value": "> 100 µM (inactive)"}, {"measurement": "GI50", "setting": "SF-295", "value": "20.7 µM (inactive)"}, {"measurement": "GI50", "setting": "BT-549", "value": "12.5 µM (inactive)"}, {"measurement": "GI50", "setting": "MDA-N", "value": "12.4 µM (inactive)"}, {"measurement": "GI50", "setting": "SW-620", "value": "40.4 µM (inactive)"}, {"measurement": "GI50", "setting": "NCI-H226", "value": "41.4 µM (inactive)"}, {"measurement": "GI50", "setting": "COLO 205", "value": "22.1 µM (inactive)"}, {"measurement": "GI50", "setting": "HCT-116", "value": "23.8 µM (inactive)"}, {"measurement": "GI50", "setting": "CAKI-1", "value": "17.1 µM (inactive)"}, {"measurement": "GI50", "setting": "DU-145", "value": "83.2 µM (inactive)"}, {"measurement": "GI50", "setting": "UACC-257", "value": "61.2 µM (inactive)"}, {"measurement": "GI50", "setting": "OVCAR-8", "value": "45.5 µM (inactive)"}, {"measurement": "GI50", "setting": "OVCAR-3", "value": "37.6 µM (inactive)"}, {"measurement": "GI50", "setting": "SF-268", "value": "46.7 µM (inactive)"}, {"measurement": "GI50", "setting": "RPMI-8226", "value": "23.4 µM (inactive)"}]}
{"compound": "CC(=O)OCC1OC(SC2=N/C(=C\\c3cc4c(=O)c5ccccc5sc4s3)C(=O)N2c2ccccc2)C(OC(C)=O)C(OC(C)=O)C1OC(C)=O", "note": "(centres undefined)", "values": [{"measurement": "GI50", "setting": "KM12", "value": "> 100 µM (inactive)"}, {"measurement": "GI50", "setting": "HCT-15", "value": "> 100", "unit": "µM"}, {"measurement": "GI50", "setting": "ACHN", "value": "> 100 µM (inactive)"}, {"measurement": "GI50", "setting": "786-0", "value": "> 100 µM (inactive)"}, {"measurement": "GI50", "setting": "Malme-3M", "value": "> 100 µM (inactive)"}, {"measurement": "GI50", "setting": "SF-295", "value": "> 100 µM (inactive)"}, {"measurement": "GI50", "setting": "BT-549", "value": "63.8 µM (inactive)"}, {"measurement": "GI50", "setting": "MDA-N", "value": "> 100 µM (inactive)"}, {"measurement": "GI50", "setting": "SW-620", "value": "67.8 µM (inactive)"}, {"measurement": "GI50", "setting": "NCI-H226", "value": "> 100 µM (inactive)"}, {"measurement": "GI50", "setting": "COLO 205", "value": "> 100 µM (inactive)"}, {"measurement": "GI50", "setting": "HCT-116", "value": "37.6 µM (inactive)"}, {"measurement": "GI50", "setting": "CAKI-1", "value": "> 100 µM (inactive)"}, {"measurement": "GI50", "setting": "DU-145", "value": "> 100 µM (inactive)"}, {"measurement": "GI50", "setting": "UACC-257", "value": "> 100 µM (inactive)"}, {"measurement": "GI50", "setting": "OVCAR-8", "value": "> 100 µM (inactive)"}, {"measurement": "GI50", "setting": "OVCAR-3", "value": "> 100 µM (inactive)"}, {"measurement": "GI50", "setting": "SF-268", "value": "> 100 µM (inactive)"}, {"measurement": "GI50", "setting": "RPMI-8226", "value": "50.9 µM (inactive)"}]}
